Reference: PubChem BioAssay (NCI)
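Where inhibition never reached the appropriate level, the endpoint shown equals the highest concentration tested. Otherwise, values were interpolated linearly from a five-concentration, 48-hour dose response in 96-well plates. GI50 is the concentration that inhibits growth by half. Definition used: TGI = concentration required for complete inhibition of growth.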

How the values were obtained:
Test in all cases: inhibition of tumour cell growth, NCI panel, 48 h
[1] = system: HOP-62 NSCLC
[2] = system: HL-60(TB) leukemia
[3] = system: CAKI-1 renal
[4] = system: HCT-116 colon
[5] = system: SK-MEL-2 melanoma
[6] = system: MOLT-4 leukemia
[7] = system: CCRF-CEM leukemia
[8] = system: 786-0 renal
[9] = system: SW-620 colon
[10] = system: HT29 colon

## O=C(O)C1C2CC3CC2CC31 (stereo not given)
[1]
  TGI: > 100 µM
[2]
  TGI: > 100 µM
[3]
  TGI: > 100 µM
[4]
  TGI: > 100 µM
[5]
  TGI: > 100 µM
[6]
  TGI: > 100 µM
[7]
  TGI: > 100 µM
[8]
  TGI: > 100 µM
[9]
  TGI: > 100 µM

## COc1cc(C(N)=O)c(OC)c(OC)c1OC
[1]
  TGI: > 100 µM
[2]
  TGI: > 100 µM
[4]
  TGI: > 100 µM
[5]
  TGI: > 100 µM
[6]
  TGI: > 100 µM
[7]
  TGI: > 100 µM
[8]
  TGI: > 100 µM
[9]
  TGI: > 100 µM
[10]
  TGI: > 100 µM

## O=C1CCCc2c(O)ccc(O)c21
[1]
  TGI: > 100 µM
[2]
  TGI: 53.5 µM
[4]
  TGI: > 100 µM
[5]
  TGI: > 100 µM
[6]
  TGI: > 100 µM
[7]
  TGI: 71.7 µM
[8]
  TGI: > 100 µM
[9]
  TGI: > 100 µM
[10]
  TGI: > 100 µM

## O=C1C=Cc2noc3cccc1c23
[2]
  TGI: 3.67 µM
[3]
  TGI: 25.4 µM
[4]
  TGI: 4.47 µM
[5]
  TGI: 21.2 µM
[6]
  TGI: > 100 µM
[7]
  TGI: 5.35 µM
[8]
  TGI: 20.7 µM
[9]
  TGI: 16.2 µM
[10]
  TGI: 79.7 µM

## C/C(=N\n1c(N)c(C#N)c(-c2ccc(Cl)cc2)c(C#N)c1=O)c1cccnc1
[1]
  GI50: > 100 µM
  TGI: > 100 µM
[3]
  GI50: > 100 µM
  TGI: > 100 µM
[4]
  GI50: > 100 µM
  TGI: > 100 µM
[5]
  GI50: > 100 µM
  TGI: > 100 µM
[6]
  GI50: > 100 µM
  TGI: > 100 µM
[7]
  GI50: > 100 µM
  TGI: > 100 µM
[8]
  GI50: > 100 µM
  TGI: > 100 µM
[9]
  GI50: > 100 µM
  TGI: > 100 µM
[10]
  GI50: > 100 µM
  TGI: > 100 µM

## NC(=O)c1ccc(NC(=O)c2oc3ccccc3c2-c2cnn(-c3ccccc3)c2)cc1
[1]
  GI50: 3.33 µM
  TGI: 46.6 µM
[2]
  GI50: > 100 µM
  TGI: > 100 µM
[5]
  GI50: 20.4 µM
  TGI: > 100 µM
[6]
  GI50: > 100 µM
  TGI: > 100 µM
[7]
  TGI: > 23.2 µM
[8]
  GI50: 5.41 µM
  TGI: > 85.2 µM
[9]
  GI50: > 100 µM
  TGI: > 100 µM

## O=[N+]([O-])C(=C(c1ccccc1)c1ccccc1)[N+](=O)[O-]
[2]
  TGI: 8.74 µM
[3]
  TGI: 43.2 µM
[4]
  TGI: 26.3 µM
[5]
  TGI: 6.83 µM
[6]
  TGI: 22.7 µM
[7]
  TGI: 22.1 µM
[8]
  TGI: 27.7 µM
[9]
  TGI: 25.4 µM

## Cc1ccc(C)c(NC(=O)CCc2n[nH]c(=S)o2)c1
[1]
  TGI: > 100 µM
[2]
  TGI: > 100 µM
[3]
  TGI: > 100 µM
[4]
  TGI: > 100 µM
[6]
  TGI: > 100 µM
[7]
  TGI: > 100 µM
[8]
  TGI: > 100 µM
[9]
  TGI: > 100 µM
[10]
  TGI: > 100 µM

## COc1ccc2c3c([nH]c2c1)[C@H]1C[C@H]2[C@H](C[C@@H](O)[C@H](OC)[C@H]2C(=O)O)CN1CC3
[1]
  TGI: > 100 µM
[3]
  TGI: > 100 µM
[4]
  TGI: > 100 µM
[5]
  TGI: > 100 µM
[6]
  TGI: > 100 µM
[7]
  TGI: > 100 µM
[8]
  TGI: > 100 µM
[9]
  TGI: > 100 µM
[10]
  TGI: > 100 µM

## COS(=O)CCOC(=O)c1ccccc1SSc1ccccc1C(=O)OCCS(=O)OC (stereo not given)
[1]
  TGI: > 100 µM
[3]
  TGI: 73.1 µM
[5]
  TGI: > 100 µM
[6]
  TGI: 22.8 µM
[7]
  TGI: > 100 µM
[8]
  TGI: 38.2 µM
[9]
  TGI: 87.4 µM
[10]
  TGI: 28.8 µM

## c1ccc(CN(Cc2ccccn2)Cn2cccn2)nc1
[1]
  TGI: > 100 µM
[2]
  TGI: 55.8 µM
[3]
  TGI: > 100 µM
[4]
  TGI: 63.7 µM
[5]
  TGI: > 100 µM
[6]
  TGI: > 100 µM
[7]
  TGI: > 100 µM
[8]
  TGI: > 100 µM
[9]
  TGI: > 100 µM

## CC(C)c1cc2c(O)c(c1)Cc1cc(C(C)C)cc(c1O)Cc1cc(C(C)C)cc(c1O)Cc1cc(C(C)C)cc(c1O)Cc1cc(C(C)C)cc(c1O)Cc1cc(C(C)C)cc(c1O)C2
[1]
  TGI: > 100 µM
[2]
  TGI: > 100 µM
[4]
  TGI: > 100 µM
[5]
  TGI: > 100 µM
[6]
  TGI: > 100 µM
[7]
  TGI: > 100 µM
[8]
  TGI: > 100 µM
[9]
  TGI: > 100 µM
[10]
  TGI: > 100 µM

## O=C1CCCC2COc3ccc(O)c1c32 (stereo not given)
[1]
  TGI: > 100 µM
[2]
  TGI: > 100 µM
[5]
  TGI: > 100 µM
[6]
  TGI: > 100 µM
[7]
  TGI: > 100 µM
[8]
  TGI: > 100 µM
[10]
  TGI: > 100 µM

## S=C1OC2C3C4CC5C3C(O1)C1C5C4C21 (stereo not given)
[1]
  TGI: > 100 µM
[2]
  TGI: > 100 µM
[3]
  TGI: > 100 µM
[4]
  TGI: > 100 µM
[6]
  TGI: > 100 µM
[7]
  TGI: > 100 µM
[8]
  TGI: > 100 µM
[9]
  TGI: > 100 µM
[10]
  TGI: > 100 µM

## Cc1cc(C(=O)NCCN(C)C)c2nc3ccccc3nc2c1
[1]
  TGI: 10.4 µM
[2]
  TGI: > 100 µM
[3]
  TGI: > 46.5 µM
[4]
  TGI: 16.3 µM
[5]
  TGI: 17.2 µM
[6]
  TGI: 5.97 µM
[8]
  TGI: > 61.9 µM
[9]
  TGI: > 37.4 µM
[10]
  TGI: 19.1 µM

## OCC(O)C(OC1OC(CO)C(O)C(O)C1O)c1nn(-c2ccc(F)cc2)c2nc3cc(Cl)c(Cl)cc3cc12 (stereo not given)
[1]
  TGI: > 100 µM
[4]
  TGI: > 100 µM
[6]
  TGI: > 100 µM
[7]
  TGI: > 100 µM
[8]
  TGI: > 100 µM
[10]
  TGI: > 100 µM

## Fc1cc(Nc2ccc3c(OCCCN4CCOCC4)cccc3n2)ccc1Cl
[1]
  GI50: 1.71 µM
  TGI: 3.43 µM
[2]
  GI50: 2.68 µM
  TGI: 7.77 µM
[3]
  GI50: 1.89 µM
  TGI: 5.1 µM
[4]
  GI50: 2.76 µM
  TGI: 7.16 µM
[5]
  GI50: 1.96 µM
  TGI: 4.04 µM
[6]
  GI50: 1.68 µM
  TGI: 3.88 µM
[7]
  GI50: 2.48 µM
  TGI: 8.66 µM
[8]
  GI50: 1.79 µM
  TGI: 3.53 µM
[10]
  GI50: 1.53 µM
  TGI: 3 µM

## NC(=O)c1ccc(-c2c3ccccc3cc3c2ccc2ccccc23)cc1
[1]
  GI50: 4.28 µM
  TGI: 23.2 µM
[2]
  GI50: 2.14 µM
  TGI: > 100 µM
[3]
  GI50: 4.54 µM
  TGI: 52.8 µM
[4]
  GI50: 2.36 µM
  TGI: 10.8 µM
[6]
  GI50: 5.5 µM
  TGI: > 100 µM
[7]
  GI50: 5.83 µM
  TGI: > 100 µM
[8]
  GI50: 3.64 µM
  TGI: 14.8 µM
[9]
  GI50: 2.56 µM
  TGI: 19.7 µM

## COc1ccc(/C=C/CO)cc1OC
[5]
  TGI: > 100 µM
[6]
  TGI: > 100 µM
[8]
  TGI: > 100 µM
[9]
  TGI: > 100 µM
[10]
  TGI: > 100 µM

## CC1=C[C@H]2C[C@@]3(C)O[C@@H]([C@]4(C)CC[C@H]([C@@H](C)C(=O)O)OO4)CC3C(C)(C)[C@H]2CC1 (stereo not given in full)
[1]
  TGI: 3.94 µM
[2]
  TGI: 0.306 µM
[3]
  TGI: 2.89 µM
[4]
  TGI: 3.78 µM
[5]
  TGI: 3.21 µM
[8]
  TGI: 4.99 µM
[9]
  TGI: 0.856 µM
[10]
  TGI: 1.77 µM

## CCn1c(-c2cc3ccccc3cc2OC(=O)c2ccccc2)n[nH]c1=S
[1]
  GI50: > 50 µM
  TGI: > 50 µM
[2]
  GI50: 32.7 µM
  TGI: > 50 µM
[3]
  GI50: 24.7 µM
  TGI: > 50 µM
[4]
  GI50: 43.1 µM
  TGI: > 50 µM
[5]
  GI50: 25.5 µM
  TGI: > 50 µM
[6]
  GI50: 28 µM
  TGI: > 50 µM
[8]
  GI50: > 50 µM
  TGI: > 50 µM
[9]
  GI50: > 50 µM
  TGI: > 50 µM
[10]
  GI50: 42.4 µM
  TGI: > 50 µM
